These results are taken from patent US20090246773A1, “DIAGNOSTIC COMPOSITIONS AND TREATMENT METHODS FOR CONDITIONS INVOLVING TROPHOBLAST CELL DEATH, DIFFERENTIATION, INVASION AND/OR CELL FUSION AND TURNOVER” (Mount Sinai Hospital, priority 2006, published 2009).

Residues, ends and D or L forms follow the SMILES beside them. *: point of attachment. Cbz = O=C(OCc1ccccc1)*; CH2F = FC*

The subject of series [1] is sFlt-1 expression in first trimester placental explants. Briefly: sFlt-1 mRNA by qRT-PCR in first trimester villous explants (HIF-1 stabilization / knockdown). The note with it: 1.0 mM DMOG, explants at 20% O2; relative level normalized to 18S; 20% O2 alone 1.0±0.03; P<0.05. Type of series: cell-based, human. On the procedure: (§1) Chorionic villous explant culture was performed as previously described (Caniggia, 2000). Briefly, placental tissues (5-8 weeks of gestation, 15 separate sets) were placed in ice-cold PBS and processed within 2 hours of collection. Tissues were aseptically dissected to remove decidual tissue and fetal membranes. Small fragments of placental villi (25-45 mg wet weight) were teased apart, placed on Millicell-CM culture dish inserts (Millipore Corp., Bedford, Mass., USA) pre-coated with 0.15 mL of undiluted Matrigel (Collaborative Biomedical Products, Bedford, Mass., USA), and transferred to a 24-well culture dish. Explants were cultured in serum-free DMEM/F12 (Gibco BRL, Grand Island, N.Y., USA) supplemented with 100 μg/mL streptomycin, 100 U/mL penicillin, and incubated overnight at 37° C. in 5% CO2 in air to allow attachment. Explants were maintained in standard condition (5% CO2 in 95% air) or in an atmosphere of 3% or 8% O2 (92% or 87% N2 and 5% CO2, respectively) for 72 hrs at 37° C. The morphological integrity and viability of villous explants and their EVT outgrowth and migration were monitored daily for up to 5 days as previously reported (Caniggia, 2000). […]
Total RNA was isolated from placental samples using a Trizol-based approach according to the manufacturer's protocol (Invitrogen, CA). […] Relative quantitation of data was performed using logarithmic curves. […]
In general terms: Quantitative PCR measures a nucleic acid by following its amplification.

The test system is the same in series [2]. Briefly: sFlt-1 protein immunohistochemistry in villous explants. Type of series: cell-based, human. The note with it: DMOG added to 20% O2 explants vs. 20% O2 without DMOG; IHC. The method, then:
as §1, with “Explants were maintained in standard condition (5% CO2 in 95% air) or in an atmosphere of 3% or 8% O2 (92% or 87% N2 and 5% CO2, respectively) for 72 hrs at 37° C.” left out
Paraffin sections were mounted on glass slides, dewaxed in xylene and rehydrated in descending ethanol gradient. […] Finally, avidin biotin complex (Vector Laboratories, Burlingame, Calif.) was applied for 1 hour and staining was detected with the diamino-benzidine chromogen after 5 minutes. […]

In series [3] the test system is villous explants. Nature of the series: EVT outgrowth of villous explants. The note with it: DMOG-treated explants vs. control explants at 20% O2. The class given is cell-based, human. On the procedure:
Chorionic villous explant culture was performed as previously described (Caniggia, 2000). Briefly, placental tissues (5-8 weeks of gestation, 15 separate sets) were placed in ice-cold PBS and processed within 2 hours of collection. Tissues were aseptically dissected to remove decidual tissue and fetal membranes. Small fragments of placental villi (25-45 mg wet weight) were teased apart, placed on Millicell-CM culture dish inserts (Millipore Corp., Bedford, Mass., USA) pre-coated with 0.15 mL of undiluted Matrigel (Collaborative Biomedical Products, Bedford, Mass., USA), and transferred to a 24-well culture dish. Explants were cultured in serum-free DMEM/F12 (Gibco BRL, Grand Island, N.Y., USA) supplemented with 100 μg/mL streptomycin, 100 U/mL penicillin, and incubated overnight at 37° C. in 5% CO2 in air to allow attachment. Explants were maintained in standard condition (5% CO2 in 95% air) or in an atmosphere of 3% or 8% O2 (92% or 87% N2 and 5% CO2, respectively) for 72 hrs at 37° C. The morphological integrity and viability of villous explants and their EVT outgrowth and migration were monitored daily for up to 5 days as previously reported (Caniggia, 2000). Explants from more than 10 different placentae in more than 15 separate experiments were used. […]

For series [4], the system named is villous explants. Briefly: TUNEL assay of villous explants. The class given is cell-based, human. The note with it: DMOG treatment or 3% O2 exposure of explants. The method, then: An in situ cell death detection kit was purchased from Amersham Biosciences, NJ, USA. Terminal deoxynucleotidyl transferase-dUTP-nick end labelling (TUNEL) assays were performed according to instructions provided by the manufacturer. Paraffin sections of tissue were dewaxed in xylene, rehydrated in descending grades of ethanol, and finally soaked in PBS. Tissue sections were pre-treated with Proteinase K (10 μg/mL) in PBS for 10 min, washed and then incubated in 3% hydrogen peroxide in methanol for 45 minutes. After washing in PBS, the slides were preincubated with 1× One Phor All buffer in 0.1% Triton X-100 in water for 30 minutes and then incubated in TdT solution for 1.5 hour at 37° C. Samples were washed in PBS and avidin biotin complex (Vector Laboratories, Burlingame, Calif.) was applied for 1 hour. Staining was detected with the diamino-benzidine chromogen after 10 minutes. Slides were counterstained with haematoxylin, dehydrated in ascending concentrations of ethanol, and fixed with xylene.

Series [5] relates to Mcl-1 Cleavage in Human Villous Explants. Briefly: Mcl-1 immunoblot of villous explants exposed to hypoxia-reoxygenation with caspase inhibitors. Type of series: cell-based. The note with it: for Mcl-1S amount: 100 μM inhibitor, relative to H/R and untreated tissues; for Mcl-1L cleavage induced by hypoxia-reoxygenation: human villous explants, summary statement. On the procedure: Explant cultures were performed as previously described (Caniggia, 2000). Briefly, placental tissues (5-8 weeks of gestation, 15 sets) were placed in ice-cold PBS and processed within 2 hours of collection. Tissues were aseptically dissected to remove decidual tissue and fetal membranes. Small fragments of placental villi (25-45 mg wet weight) were teased apart, placed on Millicell-CM culture dish inserts (Millipore Corp., Bedford, Mass., USA) pre-coated with 0.15 mL of undiluted Matrigel (Collaborative Biomedical Products, Bedford, Mass., USA), and transferred to a 24-well culture dish. Explants were cultured in serum-free DMEM/F12 (Gibco BRL, Grand Island, N.Y., USA) supplemented with 100 μg/mL streptomycin, 100 U/mL penicillin, and incubated overnight at 37° C. in 5% CO2 in air to allow attachment. Explants were maintained in standard condition (5% CO2 in 95% air) or in an atmosphere of 3% O2/92% N2/5% CO2 for 48 hrs at 37° C. Explants from more than 10 different placentae in more than 15 separate experiments were used. A minimum of 3 explants per experimental condition was used at all times. Explants were exposed to hypoxia-reoxygenation (H/R) as previously described (Hung, 2002; Soleymanlou, 2005) in presence of 100 μM of the pan-caspase inhibitor z-VAD-fmk (BioMol, Plymouth Meeting, Pa.) or caspase-3-specific inhibitor z-DEVD-fmk (R&D Systems, Minneapolis, Minn.) both dissolved in DMSO (equivalent volume of DMSO in absence of inhibitors was used in control conditions).
Western blotting was performed as previously described (MacPhee, 2001). Fifty μg of total protein form placental tissue or cell line was subjected to 12% (wt/vol) SDS-PAGE. Membranes were probed at 4° C. overnight with a 1:1000 dilutions of primary antibodies:rabbit polyclonal Mtd antibody capable of recognizing all isoforms as previously reported (Soleymanlou, 2005); Mcl-1-specific rabbit polyclonal antibody (SC-819 clone S-19 from Santa Cruz Biotechnology, Santa Cruz, Calif.); specific cleaved caspase-3 (Asp175) (5Al) and cleaved caspase-8 (Asp374) rabbit polyclonal antibodies (Cell Signaling, Beverly, Mass.). For anti-Mtd and Mcl-1 antibodies, pre-immune serum and competing peptides were used as controls. A rabbit polyclonal antibody was generated against N-terminal amino acids (28-41) of syncytin (NM_014590) and pre-immune serum was used as control. After overnight incubation, membranes were washed with TBS/T and incubated for 60 minutes at room temperature with 1:5000 diluted horseradish peroxidase-conjugated anti-rabbit (Santa Cruz Biotechnology). Blots were exposed to chemiluminescent ECL-plus reagent (Amersham, Piscataway, N.J.). All blots were confirmed for equal protein loading at all time using ponceau staining.

The subject of series [6] is villous explants. Nature of the series: TGFβ treatment of first trimester villous explants: phospho-Smad2/3 and sFlt-1 (Western blot, real-time PCR). Type of series: cell-based, human. The note with it: 5 ng/mL, 24 hours. The method, then:
(§2) Early onset (25-33 wks) severe IUGR with abnormal umbilical and uterine artery Doppler and from age-matched normal control tissues were collected. First trimester villous explants and BeWo and JEG-3 choriocarcinoma cell lines were cultured in standard conditions in the presence or absence of TGFβ1 or TGFβ 3 (5 ng/mL) for 24 hours. Message levels of sFlt-1 were measured by quantitative real-time PCR using specific TaqMan primers and probe. Protein expression of sFlt-1 was measured by Western blot using a polyclonal antibody against sFlt-1. In addition, protein lysates from placental tissues, explants and cells lines were analyzed with antibodies that recognize human Smad2, Smad3, Smad7 and phospho-Smad2/3.
On the technique in general: Immunoblotting shows a protein as a band on a membrane.

The test system of series [7] is BeWo cells. Nature of the series: TGFβ treatment of BeWo cells: phospho-Smad2/3 and sFlt-1 (Western blot, real-time PCR). The class given is cell-based, human. The note with it: 5 ng/mL, 24 hours. The method, then: as §2
Series [8] deals with villous explants. Briefly: TGFβ treatment of villous explants: endoglin expression. Type of series: cell-based, human. The note with it: villous explants (5-8 wks) vs. non-treated explants. The method, then: Human placental tissue from first trimester and from discordant dichorionic and monochorionic twins (n=10) and age matched normal twins (n=5) were used as physiological and pathological models of placental hypoxia. In all twins the discordancy was above 25% and absence of end diastolic velocity was documented in the growth-restricted twin. Endoglin mRNA expression was measured by quantitative PCR analysis. Protein expression was measured by Western Blot analysis using endoglin antibodies. Villous explants (5-8 wks) were used to test the effect of both oxygen and TGFβ1 and TGFβ3 on endoglin expression.

The mark [9] stands for this setting: explants under H/R, 100 μM inhibitor in DMSO, immunoblot.

With `COC(=O)CNC(=O)C(=O)OC` [DMOG, dimethyloxalyl-glycin], the “sFlt-1 mRNA expression” value in series [1] was 2.4±0.2. In addition, the “sFlt-1 protein expression in trophoblast layers including EVT” value in series [2] is “increased”. Moreover, the explant outgrowth entry in series [3] was “typical low oxygen-induced outgrowth”. Moreover, in series [4], the “apoptosis (TUNEL)” value was “not likely due to an increased incidence of apoptosis”.
In the case of `COC(=O)CC[C@H](NC(=O)[C@H](CC(=O)OC)NC(=O)OCc1ccccc1)C(=O)N[C@H](C(=O)N[C@@H](CC(=O)OC)C(=O)CF)C(C)C` [z-DEVD-fmk], the “p29 Mcl-1 (Mcl-1c) band / formation from Mcl-1L” value in series [5] (setting [9]) is given as “prevented”. Further, the Mcl-1S amount entry in series [5] (explants under H/R) is listed as “increased”. Further, the “Mcl-1L cleavage induced by hypoxia-reoxygenation” value in series [5] is reported as “prevented”.
`COC(=O)C[C@H](NC(=O)[C@H](C)NC(=O)[C@@H](NC(=O)OCc1ccccc1)C(C)C)C(=O)CF` [z-VAD-fmk] (Cbz-Val-Ala-Asp(OMe)-CH2F): in series [5] (setting [9]), the Mcl-1L content result is on record as “restored” and the “p29 Mcl-1 (Mcl-1c) band / formation from Mcl-1L” value is recorded as “abrogated”. The Mcl-1S amount entry in series [5] (explants under H/R) is reported as “increased”. Also, the “Mcl-1L cleavage induced by hypoxia-reoxygenation” value in series [5] is given as “prevented”.
As for transforming growth factor β1 [TGFβ1], in series [6], the phospho-Smad2 protein expression result is listed as “increased”, the phospho-Smad3 protein expression result was “increased”, the “sFlt-1 mRNA level” value is “significant increase” and the sFlt-1 protein level result is reported as “significant increase”. In series [7], the phospho-Smad2 protein expression result is reported as “increased”, the phospho-Smad3 protein expression result is given as “increased”, the “sFlt-1 mRNA level” value was “significant increase” and the sFlt-1 protein level result is listed as “significant increase”. Besides, in series [8], the “expression of membrane endoglin” value is reported as “increased” and the “expression of soluble endoglin” value is listed as “increased”.

B1: transforming growth factor β3 (protein, UniProt P10600 301-412, looked up)
Transforming growth factor …: ALDTNYCFRNLEENCCVRPLYIDFRQDLGWKWVHEPKGYYANFCSGPCPYLRSADTTHSTVLGLYNTLNPEASASPCCVPQDLEPLTILYYVGRTPKVEQLSNMVVKSCKCS
notes: transforming growth factor β3 added to explant and cell cultures
With B1, in series [6], the phospho-Smad2 protein expression entry is “increased”, the phospho-Smad3 protein expression result is reported as “increased”, the “sFlt-1 mRNA level” value is on record as “significant increase” and the sFlt-1 protein level result is “significant increase”. Also, in series [7], the phospho-Smad2 protein expression entry is “increased”, the phospho-Smad3 protein expression entry is reported as “increased”, the “sFlt-1 mRNA level” value is given as “significant increase” and the sFlt-1 protein level result is “significant increase”. In series [8], the “expression of membrane endoglin” value is given as “increased” and the “expression of soluble endoglin” value was “increased”.
